This is an account of results in patent publication EP0840727B1, “3-HYDROXY-2(1H)-[…] AGENTS” (priority 1995, dated 1997).

Data set [1] in a line: Solubility in water. Particulars: in words. The class given is physicochemical.
The conditions of data set [2]: ligand 30 µmol kg^-1 ip at 1 h after iv ^238Pu(IV) citrate, kill at 24 h, reported previously, cited from earlier work; for percent of injected ^238Pu at 24 h, excreta: feces and GI contents / percent of injected ^238Pu at 24 h, excreta: urine 0-24 h / percent of injected ^238Pu at 24 h, tissues: kidneys: pooled samples.
Data set [3] can be described thus: Promoting excretion of 241Am(III) in mice by injected ligand. It is filed as in vivo. Particulars: Am(III), ligand 30 mmol.kg-1 i.p at 3 to 5 min after actinide i.v., kill at 24 h. An excerpt:
(§1) Animal studies were completed using methods detailed in Radiation Protection Dosimetry, in press, P. W. Durbin et al., "In Vivo Chelation of Am(III), Pu(IV), Np(V) and U(VI) in Mice by TREN-(Me-3,2-HOPO)"; Radiation Protection Dosimetry, 17, No. 1, 1989, p. 351, P. W. Durbin et al., "Removal of ^238Pu(IV) from Mice by Polycatechoylate, -Hydroxamate or -Hydroxypyridinonate Ligands"; Radiation Research, 99, 1984, p. 85, P. W. Durbin et al., "Specific Sequestering Agents for the Actinides ..."; Radiation Research, 99, 1984, p. 106, P. W. Durbin et al., "Removal of Pu and Am from Beagles and Mice ..."; Radiation Research, 81, 1980, p. 170, R. D. Lloyd et al., and P. W. Durbin et al., "Specific Sequestering Agents for the Actinides ...". The foregoing articles are hereby incorporated by reference.
Radionuclides used in the animal studies came from a variety of sources. However, they can be purchased commercially. The ^238Pu(IV) citrate and ^241Am(III) citrate solutions were prepared for animal injection by 8- to 10-fold dilution with 0.14M NaCl (pH 4) of concentrated stock solutions (0.08M sodium citrate buffer) that had been held in frozen storage at Lawrence Berkeley Laboratory (hereinafter LBL) for several years. [The ^238Pu(IV) was originally obtained from D. R. Atherton at the University of Utah Radiobiology Laboratory, Salt Lake City. The ^241Am(III) solution had been obtained many years earlier from the LBL Actinide Chemistry group.]
(§2) One of the comparative chelating agents TREN-Me-3,2-HOPO, was also tested for effectiveness in promoting excretion of ^241Am(III), ^237Np(V), and ^232U(VI) by injection into mice, as follows: Mice, in groups of five, each received an intravenous injection of (a) 1100 Bq of ^241AM(III) in 0.2 mL of citrate buffer, (b) 150 Bq of ^232UO2Cl2 plus 3.6 mg of ^235UO2Cl2 in 0.2 mL of saline, or (c) 200 Bq of ^237NpO2Cl (7.5 mg of ^237NpO2Cl) in 0.2 mL of saline. Three to five minutes later, […] of TREN-Me-3,2-HOPO was injected intraperitoneally in 0.5 mL of saline. The mice were killed 24 hours after the actinide injection, frozen, and dissected after partial thawing. The skeleton, soft tissues, and separated excreta were radioanalyzed by counting the ^241Am gamma rays, or the alpha particles emitted by ^237Np or ^232U (and its ingrowing daughters). Removal of those actinides from mice by injected TREN-Me-3,2-HOPO is summarized in Table 5, which also includes data for mice similarly treated with CaNa3-DTPA and for actinide-injected controls. […] The structure of Am(III)-TREN-Me-3,2-HOPO is considered to resemble that of the Gd(III) complexes (see example 20). Complexation of the fraction of Np(V) that is reduced in vivo to Np(IV) is considered to resemble that of Pu(IV). Complexation of U(VI) is considered to take place through binding to UO2^2+.

The nature of data set [4]: Promoting excretion of 237Np(V) in mice by injected ligand. To be noted: Np(V), ligand 30 mmol.kg-1 i.p at 3 to 5 min after actinide i.v., kill at 24 h. It is filed as in vivo.
From the text: as §1
The ^237Np(V) was obtained from J. Bucher of the LBL Actinide Chemistry group as NpO2Cl in 0.1 M HCl. It was diluted to the desired radioactivity concentration in 0.14M NaCl and the pH was adjusted to about 4.5 with NaOH just before use.
as §2

The nature of data set [5]: Promoting excretion of U(VI) in mice by injected ligand. It is filed as in vivo. To be noted: U(VI), ligand 30 mmol.kg-1 i.p at 3 to 5 min after actinide i.v., kill at 24 h.
From the text: as §1
The ^232U was obtained from the Isotope Products Laboratory, Burbank, CA, and ^234,235U was obtained as U metal from long-held LBL storage. The two U sources were combined and dissolved in 6N HNO3, dried, and redissolved in 0.1 N HCl. The daughter radioactivities were removed by elution from a Dowex-50X4 column (22 cm length, 0.7 cm diameter, 1.5 mL·min^-1 flow rate) with 3.2N HCl. The U fractions (previously identified by a trial run with ^234,235U alone) were combined, dried, and redissolved in 0.14M NaCl at pH 5.5.
as §2

The conditions of data set [6]: Fe(III) chelation; cited from earlier work.

Marks after values point to notes of the source that are not given here.

`CCCNC(=O)c1ccn(C)c(=O)c1O` [3-hydroxy-1-methyl-4(1-propylcarbamoyl)-2(1H)-pyridinone]: the solubility in water result in data set [1] was “very soluble in water”.
`O=C(NCCCCN(CCCNC(=O)c1cccc(=O)n1O)C(=O)c1cccc(=O)n1O)c1cccc(=O)n1O` [3,4-LI(1,2-HOPO)]: in data set [2], the “percent of injected ^238Pu at 24 h, excreta: feces and GI contents” value was 58% of injected ^238Pu; the “percent of injected ^238Pu at 24 h, excreta: urine 0-24 h” value is given as 7.9% of injected ^238Pu; the “percent of injected ^238Pu at 24 h, tissues: kidneys” value (“percent of injected ^238Pu … kidneys” below) is 0.6% of injected ^238Pu; the “percent of injected ^238Pu ± SD at 24 h, tissues: liver” value is recorded as 18 ± 4.8% of injected ^238Pu. Further, in data set [2], the “percent of injected ^238Pu ± SD at 24 h, tissues: skeleton” value is 9.9 ± 3.6% of injected ^238Pu; the “percent of injected ^238Pu ± SD at 24 h, tissues: soft tissue” value was 5.8 ± 1.3% of injected ^238Pu; the “percent of injected ^238Pu ± SD at 24 h, whole body” value is given as 34 ± 9.2% of injected ^238Pu.
Turning to `O=C([O-])CN(CCN(CC(=O)[O-])CC(=O)[O-])CCN(CC(=O)[O-])CC(=O)[O-].[Ca+2].[Na+].[Na+].[Na+]` [CaNa3-DTPA, reference compound], in data set [3], the “percent of injected actinide ± SD at 24 h, tissues: liver” value was 13 ± 1.5^d percent of injected actinide; the “percent of injected actinide ± SD at 24 h, tissues: skeleton” value is listed as 8.5 ± 0.9^d percent of injected actinide; the “percent of injected actinide ± SD at 24 h, tissues: soft tissue” value was 1.9 ± 0.3^d percent of injected actinide; the “percent of injected actinide ± SD at 24 h, whole body” value is 24 ± 1.3^d percent of injected actinide. Also, in data set [3] (pooled), the “percent of injected actinide at 24 h, excreta: feces and GI contents” value is on record as 8.0% of injected actinide; the “percent of injected actinide at 24 h, excreta: urine 0-24 h” value is 68% of injected actinide; the “percent of injected actinide at 24 h, tissues: kidneys” value is on record as 0.4% of injected actinide. Moreover, in data set [4], the “percent of injected actinide ± SD at 24 h, tissues: liver” value is reported as 14 ± 5.7% of injected actinide; the “percent of injected actinide ± SD at 24 h, tissues: skeleton” value is 40 ± 4.4% of injected actinide; the “percent of injected actinide ± SD at 24 h, tissues: soft tissue” value is reported as 3.5 ± 0.9% of injected actinide; the “percent of injected actinide ± SD at 24 h, whole body” value was 58 ± 8.0% of injected actinide. Also, in data set [4] (pooled), the “percent of injected actinide at 24 h, excreta: feces and GI contents” value is given as 1.5% of injected actinide; the “percent of injected actinide at 24 h, excreta: urine 0-24 h” value is 40% of injected actinide; the “percent of injected actinide at 24 h, tissues: kidneys” value is given as 1.3% of injected actinide. Further, in data set [5], the “percent of injected actinide ± SD at 24 h, tissues: kidneys” value is reported as 17 ± 2.8% of injected actinide; the “percent of injected actinide ± SD at 24 h, tissues: skeleton” value is on record as 19 ± 3.0% of injected actinide; the “percent of injected actinide ± SD at 24 h, tissues: soft tissue” value was 2.2 ± 0.1% of injected actinide; the “percent of injected actinide ± SD at 24 h, whole body” value was 38 ± 0.7% of injected actinide. The “percent of injected actinide at 24 h, combined excreta” value in data set [5] (feces, GI contents and urine combined) is given as 62^f percent of injected actinide. For the same molecule, the “percent of injected actinide ± SD at 24 h, tissues: liver” value in data set [5] (livers of some groups pooled) is listed as 1.0^c percent of injected actinide. Moreover, in data set [2], the “percent of injected ^238Pu at 24 h, excreta: feces and GI contents” value was 5.1% of injected ^238Pu; the “percent of injected ^238Pu at 24 h, excreta: urine 0-24 h” value was 61% of injected ^238Pu; the “percent of injected ^238Pu ± SD at 24 h, tissues: liver” value is on record as 17 ± 4.0% of injected ^238Pu; the “percent of injected ^238Pu ± SD at 24 h, tissues: skeleton” value is 12 ± 2.3% of injected ^238Pu. Further, in data set [2], the “percent of injected ^238Pu ± SD at 24 h, tissues: soft tissue” value was 3.5 ± 1.6% of injected ^238Pu and the “percent of injected ^238Pu ± SD at 24 h, whole body” value is on record as 33 ± 6.6% of injected ^238Pu.
Consider `CC(=O)N(O)CCCCCNC(=O)CCC(=O)N(O)CCCCCNC(=O)CCC(=O)N(O)CCCCCNC(=O)c1ccn(C)c(=O)c1O` [DFO-Me-3,2-HOPO], for which, in data set [2], the “percent of injected ^238Pu at 24 h, excreta: feces and GI contents” value is on record as 26.4% of injected ^238Pu; the “percent of injected ^238Pu at 24 h, excreta: urine 0-24 h” value is 21% of injected ^238Pu; the “percent of injected ^238Pu … kidneys” value was 3.0% of injected ^238Pu; the “percent of injected ^238Pu ± SD at 24 h, tissues: liver” value is 13 ± 3.5% of injected ^238Pu. In data set [2], the “percent of injected ^238Pu ± SD at 24 h, tissues: skeleton” value was 17 ± 2.4% of injected ^238Pu; the “percent of injected ^238Pu ± SD at 24 h, tissues: soft tissue” value was 19 ± 3.0% of injected ^238Pu; the “percent of injected ^238Pu ± SD at 24 h, whole body” value is 53 ± 3.4% of injected ^238Pu.
In the case of `O=C(N[C@H]1COC(=O)[C@@H](NC(=O)c2cccc(O)c2O)COC(=O)[C@@H](NC(=O)c2cccc(O)c2O)COC1=O)c1cccc(O)c1O` [enterobacun], in data set [6], the “formation constant Kf” value was 10^49 and the pM was 35.5.
Consider `CC(=O)N(O)CCCCCNC(=O)CCC(=O)N(O)CCCCCNC(=O)CCC(=O)N(O)CCCCCN` [DFO, desferrioxamine B], for which, in data set [2], the “percent of injected ^238Pu at 24 h, excreta: feces and GI contents” value is 15.1% of injected ^238Pu; the “percent of injected ^238Pu at 24 h, excreta: urine 0-24 h” value was 38% of injected ^238Pu; the “percent of injected ^238Pu … kidneys” value is on record as 1.8% of injected ^238Pu; the “percent of injected ^238Pu ± SD at 24 h, tissues: liver” value is on record as 19 ± 13% of injected ^238Pu. In data set [2], the “percent of injected ^238Pu ± SD at 24 h, tissues: skeleton” value is 20 ± 11% of injected ^238Pu; the “percent of injected ^238Pu ± SD at 24 h, tissues: soft tissue” value is given as 4.5 ± 1.4% of injected ^238Pu; the “percent of injected ^238Pu ± SD at 24 h, whole body” value is reported as 45 ± 2.5% of injected ^238Pu.
